In the test the target is T1, N4CMT79–324 (Adineta vaga, UniProt A0AAB0B2A1).
T1 sequence (A0AAB0B2A1 2-247): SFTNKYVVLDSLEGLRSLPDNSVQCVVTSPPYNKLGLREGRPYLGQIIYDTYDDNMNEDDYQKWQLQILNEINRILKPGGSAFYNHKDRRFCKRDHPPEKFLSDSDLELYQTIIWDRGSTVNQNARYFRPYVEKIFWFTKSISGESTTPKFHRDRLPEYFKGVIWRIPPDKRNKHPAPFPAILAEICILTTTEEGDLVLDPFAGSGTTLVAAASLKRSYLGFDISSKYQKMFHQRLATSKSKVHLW
Description: X-ray crystal structure, […] A, space group C222_[…]. The settings on record: SAM-binding site; 600 uM sinefungin preincubated, no DNA.

Take `Nc1ncnc2c1ncn2[C@@H]1O[C@H](C[C@@H](N)CC[C@H](N)C(=O)O)[C@@H](O)[C@H]1O` [sinefungin]: the “X-ray crystal structure, 1.49 A, space group C222_1” value was “sinefungin binds in the SAM-binding site, and its adenosyl moiety is solvent-exposed on the surface”.

The record behind these values is paper PMC10406627 (The Journal of Biological Chemistry, 2023).
